Data taken from ChEMBL document CHEMBL1132863, “Antioxidant function of phenethyl-5-bromo-pyridyl thiourea compounds with potent anti-HIV activity” (Bioorg Med Chem Lett, 2000).

Columns and labels:
CCRF-CEM = assay: The compound was evaluated for percent reduction of H2O2-induced H2DCFDA fluorescence in human CEM T-cells.; format: functional; design: concentration or dose not given beside the values
[1] = Antioxidant activity was evaluated by measuring the inhibition of oxidation of ABTS to ABTS+ by metmyoglobin in the presence of H2O2.; format: functional
NALM-6 = assay: The compound was evaluated for percent reduction of H2O2-induced H2DCFDA fluorescence in NALM-6-B-cells.; format: functional, Homo sapiens; design: concentration or dose not given beside the values
[2] = molecular target: Human immunodeficiency virus type 1 reverse transcriptase (Human immunodeficiency virus 1, UniProt Q72547); assay: Inhibition of recombinant HIV-1 reverse transcriptase

Compound | Reduction (CCRF-CEM) [%] | EC50 [1] [µM] | Reduction (NALM-6) [%] | IC50 [2] [µM]
COc1ccccc1CC/N=C(\S)Nc1ccc(Br)cn1 | 72.3 | 79 | 94.2 | 1
COc1ccc(OC)c(CCNC(=S)Nc2ccc(Br)cn2)c1 | 29.4 | 89 | 11.8 | 
Fc1ccccc1CC/N=C(/Nc1ccc(Br)cn1)SCc1ccccc1 |  | > 1000 |  | > 100
VITAMIN E |  | 377 |  | 
S=C(NCCc1ccccc1Cl)Nc1ccc(Br)cn1 | 56.3 | 75 | 32 | 
COc1ccc(OC)c(CC/N=C(/Nc2ccc(Br)cn2)SCc2ccccc2)c1 |  | > 1000 |  | > 100
Fc1ccccc1CC/N=C(\S)Nc1ccc(Br)cn1 | 47 | 109 |  | 
CS/C(=N\CCc1ccccc1Cl)Nc1ccc(Br)cn1 |  | > 1000 |  | > 100
Clc1ccccc1CC/N=C(/Nc1ccc(Br)cn1)SCc1ccccc1 |  | > 1000 |  | > 100
COc1cccc(CC/N=C(\S)Nc2ccc(Br)cn2)c1 | 19.7 | 90 | 30.4 | 0.4
COc1ccc(CC/N=C(\S)Nc2ccc(Br)cn2)cc1 | 21.4 | 176 | 0 | 0.9
Fc1ccc(CC/N=C(\S)Nc2ccc(Br)cn2)cc1 | 13 | 89 | 2 | 
S=C(NCCc1ccccc1)Nc1ccc(Br)cn1 | 32.1 | 98 | 37.1 | 1.3
CCCOC(=O)c1cc(O)c(O)c(O)c1 [PROPYL GALLATE] |  | 84 |  | 
Fc1cccc(CC/N=C(\S)Nc2ccc(Br)cn2)c1 | 45 | 100 |  | 
Cc1cn([C@H]2C[C@H](N=[N+]=[N-])[C@@H](CO)O2)c(=O)[nH]c1=O [ZIDOVUDINE] |  | > 1000 |  | > 100
